The subject of series [1] is BTLA/HVEM interaction (BTLA-Fc coated, HVEM-Fc). The series can be described thus: Competitive BTLA/HVEM ELISA. As to conditions: peptide or amino acid at 5, 1 and 0.1 mg/mL, 2 h at 37°C; relative to PBS (0%) and anti-BTLA 7.1 mAb (100%); at least two experiments in triplicate. It counts as binding, human. An excerpt:
(§1) The recombinant human BTLA protein used in affinity tests was purchased form Novoprotein (Company product code: C563). For ELISA, recombinant human BTLA-Fc, HVEM-Fc as well as anti-human BTLA (#7.1) blocking monoclonal antibody (mAb) and anti-human HVEM (#11.8) non-blocking mAb were described previously. Anti-HVEM mAb was biotinylated using the Biotin Labeling Kit-NH2 (Abnova, #KA0003), according manufacturer’s instruction.
96-well round bottom plates (medium binding; Greiner Bio-One) were coated with 400 ng/well of recombinant BTLA-Fc protein in PBS (50 μL/well) and incubated overnight at 4°C. Wells were washed twice with PBS-T (phosphate buffer saline with 0.1% Tween-20, pH 7.4) and blocked with 1% milk in PBS-T for 1 hour at 37°C. […] Maximum binding of HVEM to BTLA was controlled by adding 1% milk/PBS-T to negative control wells, whereas maximum inhibition was monitored by adding anti-BTLA 7.1 mAb (0.1 μg/well). Next, the plate was washed and incubated with recombinant HVEM-Fc protein at 400 ng/well in 1% milk/PBS-T for 1 hour at 37°C. Biotinylated anti-HVEM 11.8 antibody was then added (biotinylated preparation diluted at 1/10 000 in 1% milk/PBS-T) and incubated for 1 hour at 37°C. Streptavidin horseradish peroxidase (Dako) was finally added at a 1/8000 dilution in 1% BSA/PBS-T for 30 min at 37°C and detected with TMB (Biorad). The substrate reaction was blocked with 0.2 M H2SO4 and the absorbance was read at 450 nm and 630 nm. […] Statistical analysis of the results was performed using the one-way analysis of variance (one-way ANOVA).

Series [2] concerns 293T cells expressing BTLA, binding of rhHVEM-Fc. The series can be described thus: BTLA/HVEM interaction cell line assay (flow cytometry). As to conditions: 293T cells expressing human BTLA pre-incubated with 5 mg/mL for 1 h at 4°C, then rhHVEM-Fc 8 μg/ml and AF647 anti-human IgG; at least two experiments in triplicate. It counts as cell-based. On the procedure:
293T cells expressing BTLA (generous gift from Dr. C. Krummenacher, University of Pennsylvania, USA) were maintained in culture with RPMI 10% FCS supplemented with 0.2 mg/ml hygromycin B. 2x10^5 293T cells expressing BTLA were incubated with […] 8μg/ml in PBS 0.5% BSA for 30min at 4°C. Cells were then washed and incubated with goat anti-human Fc conjugated with AF647 for 20min at 4°C (Jackson ImmunoResearch, #109-606-170). Inhibition of HVEM-BTLA binding by different peptides was assessed by pre-incubating the cells with the different peptides at 5 mg/ml for 1h at 4°C. BTLA expression was controlled by anti-BTLA APC-conjugated antibody (Biolegend, #344510). Maximum inhibition of binding was determined by adding anti-BTLA7.1 antibody for 1h at 4°C at 2μg/ml before adding […]. Sample acquisition was performed on the Gallios Flow-Cytometer (Beckman Coulter) and data were analyzed using the FlowJo Software (TreeStar).  Fig 7 Blocking capacity of HVEM(23-39) fragment and free amino acids in a cellular assay. 293T cells expressing human BTLA were incubated with peptides or free amino acids (5mg/mL) prior labeling with […] AF647-conjugated anti-human IgG antibody (at least two experiments in triplicate).
For orientation: A flow cytometer gives signals particle by particle.

Series [3] deals with recombinant human BTLA protein. The experiment in a line: Microcolumn affinity test (BTLA-Sepharose, MALDI-MS of fractions). It counts as binding. As to conditions: for Interaction with BTLA immobilised in microcolumn (in words): BTLA-Sepharose microcolumn, 2 h at 25°C, pH 7.4, MS of elution fraction; for Elution [M+H]+1 (peptide signal in elution fraction = complex with BTLA formed; - = no signal): BTLA immobilised on NHS-Sepharose microcolumn, peptide incubated 2 h at 25°C in NH4HCO3 pH 7.4, eluted with 0.1% TFA, MALDI TOF/TOF. The method, then: as §1
The immobilization of BTLA protein in a microcolumn was performed using the NHS-activated acid-coupled Sepharose 4B (Sigma Aldrich). BTLA protein was dissolved in 100 μl of coupling buffer (0.2 M NaHCO3, 0.5 M NaCl, pH 8.3) and was added to 0.06 g NHS-activated Sepharose in 100 μl of coupling buffer. The coupling reaction was performed for 1 hour in 25°C and the mixture was transferred into the microcolumn (MoBiTec, Goettingen, Germany). The microcolumn with immobilized protein was washed alternately with 10 ml of solution blocking buffer (0.1 M amino ethanol, 0.5 M NaCl, pH 8.3) and washing buffer (0.1 M CH3COONa, 0.5 M NaCl, pH 4). This step was repeated 4 times. The microcolumn was stored in PBS (pH 7.4).
Peptide affinity assay using NHS-activated Sepharose microcolumn was already described elsewhere. The peptides were added onto BTLA-Sepharose column equilibrated in ammonium hydrogen carbonate (NH4HCO3, pH 7.4) and incubated for 2 h at 25°C with gentle shaking. After this time the unbound peptide was removed and the column was washed with […] NH4HCO3 and 20 ml of H2O. Dissociation of the protein—peptide complex was performed using 0.1% TFA in H2O (2 x 0.5 ml) by 15 minutes. All fractions were analyzed using mass spectrometry (MALDI TOF/TOF™ 5800, AB SCIEX).
Fig 2 Microcolumn affinity test. Microcolumn affinity test results for binding of HVEM(23–39) fragment to BTLA: (A) supernatant, (B) last wash and (C) elution fractions. The MS measurements were done with the use of MALDI TOF/TOF 5800 (ABSciex, Germany). As a matrix α-cyano-4-hydroxycinnamic acid (CHCA, 10 mg/ml, Sigma-Aldrich) was used. The measurements were done in reflector positive mass mode with previous mass calibration with commercial standard peptide mixture (The Peptide Mass Standards Kit for Calibration of AB SCIEX MALDI-TOF™ Instruments).

Series [4] is described as follows: Ellman's assay of free thiols. It counts as physicochemical. The settings on record: for Presence of free thiol groups: DTNB, 0.1 M sodium phosphate pH 7.4, 1 mM EDTA, absorbance at 412 nm. The method, then: The presence of free thiols was investigated using Ellman’s assay. DTNB (Sigma Aldrich) was first dissolved in reaction buffer (0.1 M sodium phosphate, pH 7.4, containing 1 mM EDTA) at a concentration of 4 mg/ml. Then peptides and recombinant BTLA-Fc, alone or mixed together (ratio 1:1) were added in DTNB reaction buffer. After 15 minutes of incubation, the SH content of protein samples was then assessed by the measurement of absorbance at 412 nm. For each sample, the absorbance value from the blank was subtracted.
For orientation: Ellman's reagent forms a yellow product with free thiols.

For series [5], the target named is T1, recombinant human BTLA-Fc (human, UniProt Q7Z6A9 31-157).
T1 construct: B and T lymphocyte attenuator (BTLA), human, fused to Fc; also called rhBTLA-Fc
T1 sequence (looked up): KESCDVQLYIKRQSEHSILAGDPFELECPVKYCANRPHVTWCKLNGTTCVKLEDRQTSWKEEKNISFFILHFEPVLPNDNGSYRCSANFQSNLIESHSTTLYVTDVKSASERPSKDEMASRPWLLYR
The experiment in a line: ELISA; competitive: BTLA-Fc coated at 400 ng/well; peptides in 1% milk/PBS-T 2 h at 37°C; washed; HVEM-Fc 400 ng/well 1 h at 37°C; detected with biotinylated anti-HVEM 11.8 and streptavidin-HRP; percent inhibition relative to anti-BTLA 7.1 mAb (100%) and buffer (0%). The settings on record: both partners purified. Background: An ELISA detects its analyte on a solid surface through an enzyme-linked reagent.

Positions of bridges follow the written chain, without caps; N, C: chain ends.

On to `CSCC[C@H](N)C(=O)O` [methionine, reference compound], for which the “Inhibition of BTLA/HVEM ligation in ELISA (in words)” value (“Inhibition of BTLA/HVEM ligation” for short) in series [1] was “the inhibitory properties were not observed”.
Same read-out and setting: then `N[C@@H](CSSC[C@H](N)C(=O)O)C(=O)O` [cystine, reference compound], with “the inhibitory properties were not observed”.
Consider “C37A: single alanine-substituted HVEM(23–39) variant, cysteine 37 replaced by alanine (Ac-YRVKEACGELTGTVAEP-NH2)”, for which the “Inhibition of BTLA/HVEM ligation” value in series [1] is “significant reduction of the inhibition”.
Take “Ac-YRVKEACGELTGTVCEP-NH2 [HVEM(23–39), HVEM fragment 23–39, Ac-…-NH2, free sulfhydryl groups]”: the “Blocking of BTLA/HVEM binding in cellular assay (GMFI, in words)” value in series [2] is on record as “almost no blocking of the BTLA/HVEM binding was observed”. Also, in series [3], the “Interaction with BTLA immobilised in microcolumn (in words)” value (shortened to “Interaction with BTLA immobilised”) is “complex between BTLA and HVEM(23–39) was formed”. Also, the “Presence of free thiol groups” value in series [4] is given as “observed free thiol groups”. Moreover, the “Concentration of free thiol groups after 2 hours of incubation, peptide alone” value in series [4] (Ellman's assay, pH 7.4, peptide alone, 2 hours, suggests a fraction of the peptide is oxidized) is “lower”. Also, in series [4] (Ellman's assay, pH 7.4, peptide mixed with recombinant BTLA-Fc (ratio 1:1)), the “Concentration of free thiol groups over time, peptide incubated with BTLA-Fc” value is “decrease in the concentration of free thiol groups over time, which was more pronounced than in the condition where the peptide was alone”. Further, the “Inhibition of BTLA/HVEM ligation” value in series [1] is given as “can partially prevent the ligation of HVEM to BTLA, in a dose dependent manner”.
For the molecule “Ac-YRVKEAY^29GELTGTVCEP-NH2 [HVEM(23–39) C29Y, HVEM(23–39) analog with Cys29 replaced by tyrosine]”, the “Elution [M+H]+1 (peptide signal in elution fraction = complex with BTLA formed; - = no signal)” value in series [3] was 1955.7.
Consider “Ac-ELTGTVS^37EP-NH2 [HVEM(31–39) C37S, HVEM(31–39) analog with Cys37 replaced by serine]”, for which, in series [1], the “Inhibition of BTLA/HVEM ligation” value is listed as “no blocking capacity”.
Consider “C29A: single alanine-substituted HVEM(23–39) variant, cysteine 29 replaced by alanine (Ac-YRVKEAAGELTGTVCEP-NH2)”, for which the “Inhibition of BTLA/HVEM ligation” value in series [1] is recorded as “significant reduction of the inhibition”.
As for “Ac-ELCAGPVTRKVECTYGE-NH2 [Scrambled peptide, scrambled control of HVEM(23–39), Ac-…-NH2, reference compound]”, in series [3], the “Interaction with BTLA immobilised” value was “did not interact with BTLA immobilized in microcolumn”. For the same molecule, the “Presence of free thiol groups” value in series [4] was “contains free thiol groups”. In addition, the “Inhibition of BTLA/HVEM ligation” value in series [1] is “has no effect”.
Turning to “Ac-YRVKEACGELTGTVCEP-NH2 (disulfide 7-15 (inferred); SMILES CC(=O)N[C@@H](Cc1ccc(O)cc1)C(=O)N[C@@H](CCCNC(=N)N)C(=O)N[C@H](C(=O)N[C@@H](CCCCN)C(=O)N[C@@H](CCC(=O)O)C(=O)N[C@@H](C)C(=O)N[C@H]1CSSC[C@@H](C(=O)N[C@@H](CCC(=O)O)C(=O)N2CCC[C@H]2C(N)=O)NC(=O)[C@H](C(C)C)NC(=O)[C@H]([C@@H](C)O)NC(=O)CNC(=O)[C@H]([C@@H](C)O)NC(=O)[C@H](CC(C)C)NC(=O)[C@H](CCC(=O)O)NC(=O)CNC1=O)C(C)C) [HVEM(23–39) (C29-C37), cyclic HVEM(23–39) with disulfide bridge, oxidized cysteines]”, in series [3], the “Elution [M+H]+1 (peptide signal in elution fraction = complex with BTLA formed; - = no signal)” value was determined as 1893.9 and the “Interaction with BTLA immobilised” value is listed as “interacted with BTLA in affinity test”. Also, the “Inhibition of BTLA/HVEM ligation” value in series [1] was “no blocking of BTLA/HVEM interaction was observed”.
In the case of “Ac-YRVKEAS^29GELTGTVCEP-NH2 [HVEM(23–39) C29S, HVEM(23–39) analog with Cys29 replaced by serine]”, in series [3], the “Elution [M+H]+1 (peptide signal in elution fraction = complex with BTLA formed; - = no signal)” value was 1879.7.
For “Ac-ELTGTVCEP-NH2 [HVEM(31–39), 9 amino acid-long HVEM fragment 31–39]”, in series [3], the “Elution [M+H]+1 (peptide signal in elution fraction = complex with BTLA formed; - = no signal)” value was 989.3. Moreover, in series [1], the “Inhibition of BTLA/HVEM ligation” value was “showed a lower percentage of inhibition than the HVEM(23–39)”.
As to `N[C@@H](CS)C(=O)O` [cysteine, reference compound], the “Blocking of BTLA/HVEM binding in cellular assay (GMFI, in words)” value in series [2] is “blocked BTLA/HVEM complex formation”. Moreover, in series [1], the “Inhibition of BTLA/HVEM ligation” value is on record as “prevented partially the binding of HVEM”.

B1: HVEM(23–39) peptide (peptide)
peptide: YRVKEACGELTGTVCEP
modifications: not fully specified; N-terminal acetyl (Ac-); C-terminal amide (-NH2)
notes: herpes virus entry mediator (HVEM), human, residues 23-39 of the CRD1 domain; Linear, with two free sulfhydryl groups; also called HVEM(23–39) fragment; wild-type peptide HVEM(23–39); source: synthetic peptide (SPPS, RP-HPLC purified)
In the case of B1, the binding result in series [5] is listed as “binds”.

B2: HVEM(31–39) (peptide)
peptide: Ac-ELTGTVCEP-NH2
notes: herpes virus entry mediator (HVEM), human, residues 31-39; also called HVEM (31–39) fragment; source: synthetic peptide (SPPS, RP-HPLC purified)
For the molecule B2, in series [5], the binding result was “binds”.

Values taken from paper PMC5464627, “Design of short peptides to block BTLA/HVEM interactions for promoting anticancer T-cell responses” (PLoS ONE, 2017).
